Experimental data taken from PMC5989765, “The safety, tolerability, and pharmacokinetic profile of GSK2838232, a novel 2nd generation HIV maturation inhibitor, as assessed in healthy subjects” (Pharmacology Research & Perspectives, 2018).
Entries after “also recorded” stand apart in the source; their conditions may differ. Where two headings read alike, the source gives them in different places.

Tests used:
[1] = Study 204953 Part 1A: single doses 50-250 mg API PiB with RTV, healthy subjects; format: in vivo, human; conditions: for Cmax / Tmax / concentration at 24 h / AUC / half-life: human, plasma, oral; for Tmax / concentration at 24 h: median (range); for concentration at 24 h: read-out: C24; for AUC: read-out: AUC(0‐∞); for half-life: read-out: t½ (converted); for dose proportionality of exposure (AUC and C max): single doses 50 to 250 mg with RTV
Description: (§1) This study was planned as an extension of the previously conducted single‐ and multiple‐dose escalation studies described above. It was a double‐blind, placebo‐controlled, single and repeat dose escalation study of micronized API GSK2838232 with RTV conducted in three parts (Part 1A, Part 1B, and Part 2).
In Part 1A, a cohort of subjects was given single doses of 50, 100, and 250 mg of GSK2838232 with RTV, following 2 days of RTV predosing, in a sequential dose‐escalation design. Part 1B studied the relative bioavailability of GSK2838232 given as 100 mg (2 × 50 mg) capsules versus the reference API (PiB) in a two‐period crossover design with RTV, following 2 days of RTV predosing. In Period 3, subjects took the capsule formulation and RTV with a moderate fat meal (30% of calories from fat).
(§2) Blood samples were taken via an indwelling cannula or by direct venipuncture, collected into a di‐potassium ethylenediaminetetraacetic acid (K2 EDTA) tube, and placed on wet ice. Samples were centrifuged at approximately 1500g for 10 minutes at approximately 4°C. Exactly 500 μL of the resulting plasma was transferred into labeled 1.4 mL Matrix TrakMate Tubes containing exactly 500 μL of 50 mmol/L citrate buffer, pH 4.0, and mixed well. When 500 μL of plasma was not able to be transferred, the ratio of plasma to citrate buffer was kept at 1:1. Buffered plasma samples were kept on ice and frozen at −70°C within 1 hour of collection. Plasma samples were analyzed for GSK2838232 using a validated analytical method based on protein precipitation, followed by high performance liquid chromatography with tandem mass spectrometry (HPLC/MS/MS) analysis.
(§3) Extracts were analyzed using HPLC (Shimadzu, Nexera, 30 series) and tandem mass spectrometry detection (HPLC‐MS/MS). The mass spectrometer used was an API‐5500 using IonSpray interface (500 V) in positive mode monitoring. The mass transitions were 809.5 to 255.1 and 816.5 to 262.1 for GSK2838232 and [2H7] GSK2838232 (the isotopically labeled internal standard), respectively. The chromatographic conditions utilized a Waters Acquity UPLC BEH C18 column (50 × 2.1 mm, 1.7 μm) with mobile phases consisting of 1 mmol/L ammonium formate:formic acid (100:0.005) (mobile phase A) and acetonitrile:formic acid (100:0.1) (mobile phase B) at a flow rate of 0.6 mL/min, with pump B at 63% held for 2 minutes. The assay was validated to have precision (%RSD) of 0.7%‐6.5% (within‐run) and 1.0%‐5.9% RSD (between‐run) and with accuracy (%bias) of 0.0%‐1.6%. […] The lower limit of quantification (LLQ) was 0.5 ng/mL, using a 50 μL aliquot of K2EDTA acidified plasma. The higher limit of quantification (HLQ) was 500 ng/mL.
(§4) The PK parameters were calculated by standard noncompartmental analysis based on actual sampling times using WinNonlin Version 6.3 or higher. Estimation of AUC used the linear up/log down trapezoidal rule.

[2] = Study 204953 Part 2: repeat dosing for 11 days with RTV QD or 200 mg BID unboosted; format: in vivo, human; conditions: for CL/F / Cmax / AUC / half-life: geometric mean (95% CI); for Cmax / Tmax / AUC / concentration at 24 h / half-life / concentration at 12 h: human, plasma, oral; for AUC: read-out: AUC(0‐τ); for half-life: read-out: t½ (converted); for dose proportionality (C max and AUC): repeat QD dosing 20‐200 mg with RTV for 11 days, PiB or capsules
Description: as §1
In Part 2, GSK2838232 was given to separate cohorts as once‐daily 20, 50, 100, and 200 mg doses with RTV for 11 days, with GSK2838232 and RTV dosing starting at the same time (i.e., no RTV predosing). GSK2838232 was administered as PiB for the 20 and 50 mg cohorts and as the capsule formulation for the 100 and 200 mg cohorts. Another separate cohort of subjects received GSK2838232 alone (i.e., unboosted) at a dose of 200 mg twice‐daily (BID; given every 12 hours) for 11 days using the capsule formulation to assess trough concentrations without RTV co‐administration.
as §2, §3, §4

[3] = preclinical; cited from earlier work
[4] = single 50 mg API PiB, fasted, with ritonavir (2 days predosing)
[5] = single 100 mg API PiB, fasted, with ritonavir (2 days predosing), geometric mean (95% CI)
[6] = single 100 mg API PiB, fasted, with ritonavir (2 days predosing)
[7] = single 250 mg API PiB, fasted, with ritonavir (2 days predosing), geometric mean (95% CI)
[8] = single 250 mg API PiB, fasted, with ritonavir (2 days predosing)
[9] = Study Day 11, 20 mg QD + RTV (PiB), Study 204953
[10] = Study Day 11, 50 mg QD + RTV (PiB), Study 204953
[11] = Study Day 11, 100 mg QD + RTV (capsules), Study 204953
[12] = Study Day 11, 200 mg QD + RTV (capsules), Study 204953
[13] = 200 mg, Study Day 11, 200 mg bid without RTV (capsules), Study 204953
[14] = relative to first dose following predosing ritonavir to steady‐state

**Q.** Which results are given for `CC(C)C1=C2[C@H]3CC[C@@H]4[C@@]5(C)CC[C@H](OC(=O)CC(C)(C)C(=O)O)C(C)(C)[C@@H]5CC[C@@]4(C)[C@]3(C)CC[C@@]2([C@@H](O)CN(CCN(C)C)Cc2ccc(Cl)cc2)CC1=O` [GSK2838232]?
**A.** Cmax ([1]; single 50 mg API PiB, fasted, with ritonavir (2 days predosing), geometric mean (95% CI)): 15.7 ng/mL; Tmax [1, 4]: 3 h; concentration at 24 h [1, 4]: 7.26 ng/mL; Cmax [1, 5]: 24.7 ng/mL; AUC [1, 5]: 846 ng·h/mL; half-life [1, 5]: 17.9 h; Tmax [1, 6]: 5 h; concentration at 24 h [1, 6]: 13.2 ng/mL; Cmax [1, 7]: 63 ng/mL; AUC [1, 7]: 1690 ng·h/mL; half-life [1, 7]: 17.9 h; Tmax [1, 8]: 5.98 h; concentration at 24 h [1, 8]: 24 ng/mL; CL/F [1, 5]: 118 (93.3, 150) L/h; dose proportionality of exposure (AUC and C max) [1]: proportional PK; also recorded: proportional pharmacokinetics; dose proportionality of exposure (AUC and C max) ([1]; listed as GSK283832): generally dose proportional; steady‐state C24 as multiple of PA‐IC90 ([2]; 200 mg BID unboosted, PA‐IC90 5 ng/mL): ~ 8 fold; steady‐state C24 of 200 mg BID without RTV compared with 50 mg QD with RTV ([2]; Study 204953): similar; CL/F [2, 9]: 44.5 (29.5, 67.3) L/h; CL/F [2, 10]: 46.0 (35.7, 59.2) L/h; CL/F [2, 11]: 41.5 (30.7, 56.1) L/h; CL/F [2, 12]: 49.8 (30.3, 81.9) L/h; CL/F ([2]; Study Day 11, 200 mg bid without RTV (capsules), Study 204953): 269 (182, 399) L/h; Cmax ([2]; 20 mg, Study day 1, 20 mg QD + RTV (PiB), Study 204953): 11.1 ng/mL; Tmax ([2]; 20 mg, Study day 1, 20 mg QD + RTV (PiB), Study 204953, median (range)): 3.74 h; AUC ([2]; 20 mg, Study day 1, 20 mg QD + RTV (PiB), τ = 24 hours, Study 204953): 175 ng·h/mL; concentration at 24 h ([2]; 20 mg, Study day 1, 20 mg QD + RTV (PiB), τ = 24 hours, Study 204953, median (range), read-out: Cτ): 6.09 ng/mL; Cmax ([2]; 50 mg, Study day 1, 50 mg QD + RTV (PiB), Study 204953): 17.1 ng/mL; Tmax ([2]; 50 mg, Study day 1, 50 mg QD + RTV (PiB), Study 204953, median (range)): 2.5 h; AUC ([2]; 50 mg, Study day 1, 50 mg QD + RTV (PiB), τ = 24 hours, Study 204953): 265 ng·h/mL; concentration at 24 h ([2]; 50 mg, Study day 1, 50 mg QD + RTV (PiB), τ = 24 hours, Study 204953, median (range), read-out: Cτ): 11.1 ng/mL; Cmax ([2]; 100 mg, Study day 1, 100 mg QD + RTV (capsules), Study 204953): 46.2 ng/mL; Tmax ([2]; 100 mg, Study day 1, 100 mg QD + RTV (capsules), Study 204953, median (range)): 2.25 h; AUC ([2]; 100 mg, Study day 1, 100 mg QD + RTV (capsules), τ = 24 hours, Study 204953): 635 ng·h/mL; concentration at 24 h ([2]; 100 mg, Study day 1, 100 mg QD + RTV (capsules), τ = 24 hours, Study 204953, median (range), read-out: Cτ): 22.7 ng/mL; concentration at 24 h ([2]; 200 mg, 200 mg BID unboosted, read-out: steady‐state C24 mean concentration): 39 ng/mL; Cmax [2, 13]: 96.1 ng/mL; half-life [2, 13]: 19.4 h; Tmax ([2]; 200 mg, Study Day 11, 200 mg bid without RTV (capsules), Study 204953, median (range)): 3.76 h; AUC ([2]; 200 mg, Study Day 11, 200 mg bid without RTV (capsules), τ = 12 hours, Study 204953): 742 ng·h/mL; concentration at 12 h ([2]; 200 mg, Study Day 11, 200 mg bid without RTV (capsules), τ = 12 hours, Study 204953, median (range), read-out: Cτ): 38.4 ng/mL; Cmax ([2]; 200 mg, Study day 1, 200 mg QD + RTV (capsules), Study 204953): 75 ng/mL; Tmax ([2]; 200 mg, Study day 1, 200 mg QD + RTV (capsules), Study 204953, median (range)): 2.25 h; AUC ([2]; 200 mg, Study day 1, 200 mg QD + RTV (capsules), τ = 24 hours, Study 204953): 1060 ng·h/mL; concentration at 24 h ([2]; 200 mg, Study day 1, 200 mg QD + RTV (capsules), τ = 24 hours, Study 204953, median (range), read-out: Cτ): 40.1 ng/mL; Cmax ([2]; 200 mg, Study day 1, 200 mg bid without RTV (capsules), Study 204953): 48.5 ng/mL; Tmax ([2]; 200 mg, Study day 1, 200 mg bid without RTV (capsules), Study 204953, median (range)): 3.74 h; AUC ([2]; 200 mg, Study day 1, 200 mg bid without RTV (capsules), τ = 12 hours, Study 204953): 267 ng·h/mL; concentration at 12 h ([2]; 200 mg, Study day 1, 200 mg bid without RTV (capsules), τ = 12 hours, Study 204953, median (range), read-out: Cτ): 20 ng/mL; Cmax [2, 9]: 25.3 ng/mL; half-life [2, 9]: 19.8 h; Tmax ([2]; Study Day 11, 20 mg QD + RTV (PiB), Study 204953, median (range)): 5.98 h; AUC ([2]; Study Day 11, 20 mg QD + RTV (PiB), τ = 24 hours, Study 204953): 449 ng·h/mL; concentration at 24 h ([2]; Study Day 11, 20 mg QD + RTV (PiB), τ = 24 hours, Study 204953, median (range), read-out: Cτ): 17 ng/mL; Cmax [2, 10]: 56.6 ng/mL; half-life [2, 10]: 20.5 h; Tmax ([2]; Study Day 11, 50 mg QD + RTV (PiB), Study 204953, median (range)): 3.75 h; AUC ([2]; Study Day 11, 50 mg QD + RTV (PiB), τ = 24 hours, Study 204953): 1090 ng·h/mL; concentration at 24 h ([2]; Study Day 11, 50 mg QD + RTV (PiB), τ = 24 hours, Study 204953, median (range), read-out: Cτ): 40.8 ng/mL; Cmax [2, 11]: 130 ng/mL; half-life [2, 11]: 17.7 h; Tmax ([2]; Study Day 11, 100 mg QD + RTV (capsules), Study 204953, median (range)): 3.25 h; AUC ([2]; Study Day 11, 100 mg QD + RTV (capsules), τ = 24 hours, Study 204953): 2410 ng·h/mL; concentration at 24 h ([2]; Study Day 11, 100 mg QD + RTV (capsules), τ = 24 hours, Study 204953, median (range), read-out: Cτ): 89.3 ng/mL; Cmax [2, 12]: 225 ng/mL; half-life [2, 12]: 18 h; Tmax ([2]; Study Day 11, 200 mg QD + RTV (capsules), Study 204953, median (range)): 3.25 h; AUC ([2]; Study Day 11, 200 mg QD + RTV (capsules), τ = 24 hours, Study 204953): 4010 ng·h/mL; concentration at 24 h ([2]; Study Day 11, 200 mg QD + RTV (capsules), τ = 24 hours, Study 204953, median (range), read-out: Cτ): 142 ng/mL; reduction of Day 1 AUC without ritonavir predosing [2, 14]: ~25%; reduction of Day 1 C max without ritonavir predosing [2, 14]: ~25%; dose proportionality (C max and AUC) [2]: proportional PK; also recorded: dose proportional; dose proportionality (C max and AUC) ([2]; listed as GSK2383232): proportional pharmacokinetics; metabolism pathways [3]: Phase I oxidation (primarily by cytochrome P450 [CYP] 3A4) and Phase II glucuronidation; urinary excretion of drug‐related material [3]: ≤ 1 % administered dose
